From the supplement of paper PMC10307832

How the values were obtained:
Test in all cases: relative viability (nuclei count vs DMSO), 5 days (fraction); higher = more cells survive
[1] = compound: C1=CC=C2C(=C1)C=CC(=C2SSC3=C(C=CC4=CC=CC=C43)O)O [IPA-3] + CS(=O)(=O)N1CCN(Cc2cc3nc(-c4cccc5[nH]ncc45)nc(N4CCOCC4)c3s2)CC1 [Pictilisib] (partner 1 µM)
How it was run: (§1)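 Medians of duplicate plates are given as relative viability. That measure is the nuclei count in treated wells divided by the count in vehicle wells. Counts were taken on 4× images of lung cancer cell lines in 1536-well plates, 5 days after pin-tool dosing the day after seeding with one drug alone or a fixed anchor-drug dose plus five library-drug doses (not always all listed) in √10 steps.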

[2] = compound: Cc1ccc(-n2nc(C(C)(C)C)cc2NC(=O)Nc2ccc(OCCN3CCOCC3)c3ccccc23)cc1 [Doramapimod] + Cc1nc(NC(=O)N2CCC[C@H]2C(N)=O)sc1-c1ccnc(C(C)(C)C(F)(F)F)c1 [Alpelisib] (partner 2 µM)
How it was run: as §1

[3] = compound: C1=CC=C2C(=C1)C=CC(=C2SSC3=C(C=CC4=CC=CC=C43)O)O [IPA-3] + C[C@]1(O)C[C@@H](c2nc(-c3ccc4ccc(-c5ccccc5)nc4c3)c3c(N)nccn32)C1 [Linsitinib] (partner 1 µM)
How it was run: as §1

[4] = compound: Cn1c(Nc2ccc(C(F)(F)F)cc2)nc2cc(Oc3ccnc(-c4ncc(C(F)(F)F)[nH]4)c3)ccc21 [RAF265] + CC(C)C[C@H](NC(=O)[C@H](Cc1ccccc1)NC(=O)c1cnccn1)B(O)O [Bortezomib] (partner 0.002 µM)
How it was run: as §1

Cell Line: UMC-11
- relative viability ([1]; first compound 0.2 µM): 0.982
- relative viability ([1]; first compound 0.6325 µM): 0.815
- relative viability ([1]; first compound 2 µM): 0.776
- relative viability ([1]; first compound 6.325 µM): 0.665
- relative viability ([1]; first compound 20 µM): 0.763
- relative viability ([2]; first compound 0.02 µM): 1
- relative viability ([2]; first compound 0.06325 µM): 1.03
- relative viability ([2]; first compound 0.2 µM): 0.891
- relative viability ([2]; first compound 0.6325 µM): 0.989
- relative viability ([2]; first compound 2 µM): 0.876
- relative viability ([3]; first compound 0.2 µM): 1.28
- relative viability ([3]; first compound 0.6325 µM): 0.923
- relative viability ([3]; first compound 2 µM): 1.07
- relative viability ([3]; first compound 6.325 µM): 1.04
- relative viability ([3]; first compound 20 µM): 1.24
- relative viability ([4]; first compound 0.01 µM): 0.624
- relative viability ([4]; first compound 0.03162 µM): 0.724
- relative viability ([4]; first compound 0.1 µM): 0.758
- relative viability ([4]; first compound 0.3162 µM): 0.745
- relative viability ([4]; first compound 1 µM): 0.537
